US6407138B1, “Composition and method for preparing electrically neutral amino acid chelates free of interfering ions” (Albion International, Inc., priority 2000, dated 2002)

Experiments:
[1] = zero ionic strength; reaction M^2+ + (Gly)^- <-> M(Gly)^+; cited from earlier work
[2] = Shaking in a plastic bag (electrostatic behaviour of the powder); type: physicochemical; settings: shaken in a plastic bag
Method: A 10:1 mixture of copper bisglycinate to terra alba (CaSO4) [Sample 1] was prepared and shaken together in a plastic bag. Next, a pure copper bisglycinate without the presence of terra alba [Sample 2] was also prepared and shaken in a plastic bag.

[3] = Addition to stimulated gastric solution (stability in acid solution, colour change); type: physicochemical; settings: added to stimulated gastric solution
Method: Finally, Sample 2 was added to a stimulated gastric solution which caused the product to change color. Sample 1 was similarly added to a stimulated gastric solution.

Particle size = type: physicochemical
Description: The particle size found in Sample 1 and Sample 2 was about 70 mesh.

[4] = Rubbing between thumb and finger (hygroscopicity); type: physicochemical; settings: rubbed between thumb and finger; moisture from thumb, finger and surrounding air
Description: Sample 1 was further compared to Sample 2 by rubbing a portion of each between the thumb and finger.

Compound	log of the equilibrium constant [1]	electrostatic behaviour: product sticking to the walls of the bag [2]	color change in stimulated gastric solution (stability in acid solution) [3]	particle size (Particle size)	hygroscopicity: balling up with moisture [4]
copper	8.56	–	–	–	–
NCC(=O)[O-].NCC(=O)[O-].[Cu+2] [Sample 2, copper bisglycinate]	–	a blue hazei of product stuck the walls of the bag	change color	about 70 mesh	quickly balled up
